Results from US20110182850A1, “ORGANIC COMPOUNDS AND THEIR USES” (priority 2009, published 2011).

molecular target: T1, HCV NS3-4A serine protease (full-length NS3-4A protein, genotype 1a, strain HCV-1) (Hepatitis C virus genotype 1a, UniProt P26664); assay: HCV NS3-4A protease assay; assay type: biochemical; conditions: Protease IC50
T1 construct: using the full-length NS3-4A protein (genotype 1a, strain HCV-1)
Protocol: The inhibitory activity of certain compounds of Table A against HCV NS3-4A serine protease is determined in a homogenous assay using the full-length NS3-4A protein (genotype 1a, strain HCV-1) and a commercially available internally-quenched fluorogenic peptide substrate as described by Taliani, M., et al. 1996 Anal. Biochem. 240:60-67, which is incorporated by reference in its entirety.

T1 sequence (P26664 1658-1711): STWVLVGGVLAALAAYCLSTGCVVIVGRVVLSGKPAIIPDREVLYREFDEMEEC
T1 sequence (P26664 1027-1657): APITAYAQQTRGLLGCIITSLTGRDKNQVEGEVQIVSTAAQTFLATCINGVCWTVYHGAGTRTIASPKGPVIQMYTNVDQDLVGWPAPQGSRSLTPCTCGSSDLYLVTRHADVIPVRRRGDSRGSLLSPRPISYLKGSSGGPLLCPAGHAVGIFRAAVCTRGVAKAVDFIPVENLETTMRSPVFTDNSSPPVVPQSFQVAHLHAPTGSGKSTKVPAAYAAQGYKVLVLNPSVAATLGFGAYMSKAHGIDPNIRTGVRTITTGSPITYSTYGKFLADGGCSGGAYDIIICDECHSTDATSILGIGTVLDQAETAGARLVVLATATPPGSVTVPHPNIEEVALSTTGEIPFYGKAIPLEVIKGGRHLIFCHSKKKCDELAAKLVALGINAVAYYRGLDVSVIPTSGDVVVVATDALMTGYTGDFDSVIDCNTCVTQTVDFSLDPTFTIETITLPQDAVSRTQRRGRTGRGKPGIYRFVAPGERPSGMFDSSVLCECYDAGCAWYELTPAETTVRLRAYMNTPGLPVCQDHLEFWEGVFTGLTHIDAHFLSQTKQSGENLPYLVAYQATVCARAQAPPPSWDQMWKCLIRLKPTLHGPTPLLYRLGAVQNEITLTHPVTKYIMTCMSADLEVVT

Row | SMILES | IC50
1 | C=C[C@@H]1C[C@]1(NC(=O)[C@@H]1C[C@@]2(CN1C(=O)[C@@H](NC(=O)[C@@H](NC(=O)[C@@H]1CCCN1C(C)C)C1CCCCC1)C(C)(C)C)C(C)(C)C21CCC1)C(=O)NS(=O)(=O)c1ccccc1 [Compound 62, (5R,8S)-7-[(2S)-2-{[(2S)-2-cyclohexyl-2-({[(2S)-1-isopropylpyrrolidin-2-yl]carbonyl}amino)acetyl]amino}-3,3-dimethylbutanoyl]-10,10-dimethyl-N-{(1R,2S)-1-[(phenylsulfonyl)carbamoyl]-2-vinylcyclopropyl}-7-azadispiro[3.0.4.1]decane-8-carboxamide] | 0.7 nM
2 | C=C[C@@H]1C[C@]1(NC(=O)[C@@H]1C[C@@]2(CN1C(=O)[C@@H](NC(=O)[C@@H](NC(=O)[C@@H]1CCCCN1CCF)C1CCCCC1)C(C)(C)C)C(C)(C)C21CCC1)C(=O)NS(=O)(=O)C1CC1 [Compound 29, (5R,8S)-7-[(2S)-2-{[(2S)-2-cyclohexyl-2-({[(2S)-1-(2-fluoroethyl)piperidin-2-yl]carbonyl}amino)acetyl]amino}-3,3-dimethylbutanoyl]-N-{(1R,2S)-1-[(cyclopropylsulfonyl)carba-moyl]-2-vinylcyclopropyl}-10,10-dimethyl-7-azadispiro[3.0.4.1]decane-8-carboxamide] | 1 nM
3 | CC[C@@H]1C[C@]1(NC(=O)[C@@H]1C[C@@]2(CN1C(=O)[C@@H](NC(=O)[C@@H](NC(=O)[C@@H]1CCCCN1C(C)C)C(C)(C)C)C(C)(C)C)C(C)(C)C21CCC1)C(=O)NS(=O)(=O)C1CC1 [Compound 91, (5R,8S)-N-{(1R,2R)-1-[(cyclopropylsulfonyl)carba-moyl]-2-ethylcyclopropyl}-7-[(2S)-2-{[(2S)-2-({[(2S)-1-isopropylpiperidin-2-yl]carbonyl}amino)-3,3-dimethylbutanoyl]amino}-3,3-dimethylbutanoyl]-10,10-dimethyl-7-azadispiro[3.0.4.1]decane-8-carboxamide] | 3.5 nM
4 | C=C[C@@H]1C[C@]1(NC(=O)[C@@H]1C[C@@]2(CN1C(=O)[C@@H](NC(=O)[C@@H](NC(=O)c1c[nH]c(=O)[nH]1)C(C)(C)C)C(C)(C)C)C(C)(C)C21CCC1)C(=O)NS(=O)(=O)C1CC1 [Compound 44, (5R,8S)-N-{(1R,2S)-1-[(cyclopropylsulfonyl)carba-moyl]-2-vinylcyclopropyl}-7-[(2S)-2-{[(2S)-3,3-dimethyl-2-{[(2-oxo-2,3-dihydro-1H-imidazol-4-yl)carbonyl]amino}butanoyl]amino}-3,3-dimethylbutanoyl]-10,10-dimethyl-7-azadispiro[3.0.4.1]decane-8-carboxamide] | 2 nM
5 | C=C[C@H]1C[C@@]1(NC(=O)[C@@H]1C[C@@]2(CN1C(=O)[C@@H](NC(=O)[C@@H](NC(=O)[C@@H]1CCCO1)C1CCCCC1)C(C)(C)C)C(C)(C)C21CCC1)C(=O)NS(=O)(=O)C1CC1 [Compound 108, (5R,8S)-7-{(2S)-2-[(cyclohexyl{[(2S)-tetrahydrofuran-2-ylcarbonyl]amino}acetyl)amino]-3,3-dimethylbutanoyl}-N-{(1R,2S)-1-[(cyclopropylsulfonyl)carba-moyl]-2-vinylcyclopropyl}-10,10-dimethyl-7-azadispiro[3.0.4.1]decane-8-carboxamide] | 2.5 nM
6 | C=C[C@@H]1C[C@]1(NC(=O)[C@@H]1C[C@@]2(CN1C(=O)[C@@H](NC(=O)[C@@H](NC(=O)c1cc(C(C)C)n[nH]1)C(C)(C)C)C(C)(C)C)C(C)(C)C21CCC1)C(=O)NS(=O)(=O)C1CC1 [Compound 39, (5R,8S)-N-{(1R,2S)-1-[(cyclopropylsulfonyl)carba-moyl]-2-vinylcyclopropyl}-7-[(2S)-2-{[(2S)-2-{[(3-isopropyl-1H-pyrazol-5-yl)carbonyl]amino}-3,3-dimethylbutanoyl]amino}-3,3-dimethylbutanoyl]-10,10-dimethyl-7-azadispiro[3.0.4.1]decane-8-carboxamide] | 6 nM
7 | C=C[C@@H]1C[C@]1(NC(=O)[C@@H]1C[C@@]2(CN1C(=O)[C@@H](NC(=O)[C@@H](NC(=O)[C@@H]1CCCN1C(C)C)C(C)(C)C)C(C)(C)C)C(C)(C)C21CCC1)C(=O)NS(=O)(=O)C1CC1 [Compound 141, (5R,8S)-N-{(1R,2S)-1-[(cyclopropylsulfonyl)carba-moyl]-2-vinylcyclopropyl}-7-[(2S)-2-{[(2S)-2-({[(2S)-1-isopropylpyrrolidin-2-yl]carbonyl}amino)-3,3-dimethylbutanoyl]amino}-3,3-dimethylbutanoyl]-10,10-dimethyl-7-azadispiro[3.0.4.1]decane-8-carboxamide] | 2 nM

same assay, conditions: read-out: Protease IC50

Row | SMILES | IC50
8 | C=C[C@@H]1C[C@]1(NC(=O)[C@@H]1C[C@@]2(CN1C(=O)[C@@H](NC(=O)N[C@H](CN1CCN(C)CC1)C(C)(C)C)C(C)(C)C)C(C)(C)C21CCC1)C(=O)NS(=O)(=O)C1CC1 [Compound 16, (5R,8S)-N-{(1R,2S)-1-[(cyclopropylsulfonyl)carba-moyl]-2-vinylcyclopropyl}-7-{(2S)-2-[({(1S)-2,2-dimethyl-1-[(4-methylpiperazin-1-yl)methyl]propyl}carbamoyl)amino]-3,3-dimethylbutanoyl}-10,10-dimethyl-7-azadispiro[3.0.4.1]decane-8-carboxamide] | 10 nM
9 | C=C[C@@H]1C[C@]1(NC(=O)[C@@H]1C[C@@]2(CN1C(=O)[C@@H](NC(=O)C1CCCN(C(C)=O)C1)C(C)(C)C)C(C)(C)C21CCC1)C(=O)NS(=O)(=O)C1CC1 (stereo partly drawn) [Compound 19, (5R,8S)-7-[(2S)-2-{[(1-acetylpiperidin-3-yl)carbonyl]amino}-3,3-dimethylbutanoyl]-N-{(1R,2S)-1-[(cyclopropylsulfonyl)carba-moyl]-2-vinylcyclopropyl}-10,10-dimethyl-7-azadispiro[3.0.4.1]decane-8-carboxamide] | 350 nM
10 | C=C[C@@H]1C[C@]1(NC(=O)[C@@H]1C[C@@]2(CN1C(=O)[C@@H](NC(=O)N[C@H](CN(C)S(=O)(=O)N(C)C)C(C)(C)C)C(C)(C)C)C(C)(C)C21CCC1)C(=O)NS(=O)(=O)C1CC1 [Compound 20, (5R,8S)-N-{(1R,2S)-1-[(cyclopropylsulfonyl)carba-moyl]-2-vinylcyclopropyl}-7-[(2S)-2-({[(1S)-1-({[(dimethylamino)sulfonyl] (methyl)amino}methyl)-2,2-dimethylpropyl]carbamoyl}amino)-3,3-dimethylbutanoyl]-10,10-dimethyl-7-azadispiro[3.0.4.1]decane-8-carboxamide] | 2 nM
11 | C=C[C@@H]1C[C@]1(NC(=O)[C@@H]1C[C@@]2(CN1C(=O)[C@@H](NC(=O)[C@@H](NS(C)(=O)=O)C(C)(C)C)C(C)(C)C)C(C)(C)C21CCC1)C(=O)NS(=O)(=O)C1CC1 [Compound 47, (5R,8S)-N-{(1R,2S)-1-[(cyclopropylsulfonyl)carba-moyl]-2-vinylcyclopropyl}-7-[(2S)-2-({(2S)-3,3-dimethyl-2-[(methylsulfonyl)amino]butanoyl}amino)-3,3-dimethylbutanoyl]-10,10-dimethyl-7-azadispiro[3.0.4.1]decane-8-carboxamide] | 65 nM
